Experimental data taken from patent US20250179059A1 (The Regents of the University of California, priority 2021, published 2025).

Assays:
[1] = tested on: human SKM-1 acute myeloid leukemia cells; test: SKM-1 antiproliferation cell-based assay (ATPlite); details: Homo sapiens, SKM-1, 96 h, SKM-1 antiproliferation assay, 4 days, Table C2
Outline: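 Log-phase cells in RPMI 1640/15% FBS were seeded at 34722 cells/mL and exposed for 4 days to nine-concentration DMSO serial dilutions in triplicate. Viability was read as ATP luminescence (ATPlite 1step), and IC50 values came from variable-slope non-linear regression.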

[2] = target: T1, human BRD4 bromodomain II (Homo sapiens, UniProt O60885); test: Bromodomain binding assay (AlphaScreen), BRD4 BDII; details: AlphaScreen assay, Table C2; read-out: BRD4 BDII IC50
T1 construct: human BRD4 bromodomain II [based on Genbank NM_058243, residues 349-460]; host or cells: E. coli
Outline: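 AlphaScreen competition: His6-BRD4 BDI (aa 44-170) or BDII (aa 349-460) vs biotin-H4(1-21) K5/K8/K12/K16Ac peptide; Ni-chelate acceptor/streptavidin donor beads. HEPES pH 7.5, NaCl, CHAPS, BSA, 1% DMSO; RT. 10-pt 3-fold titration, % peptide binding fitted → IC50.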

`O=C1CCCN1c1ccc(-c2c[nH]cc(-c3cccc(N4CCNCC4)c3)c2=O)cc1F` [Example 307, 3-(3-fluoro-4-(2-oxopyrrolidin-1-yl)phenyl)-5-(3-(piperazin-1-yl)phenyl)pyridin-4(1H)-one] gave a GI50 [1] of at least 3000 nM and an IC50 [2] of over 100 nM.
`CN1CCN(c2ccc(-c3cccc(-c4ccc(C#N)c(N5CCNCC5)c4)c3O)cc2Cl)C1=O` [Example 308, 3″-chloro-2′-hydroxy-4″-(3-methyl-2-oxoimidazolidin-1-y1)-3-(piperazin-1-yl)-[1,1′:3′,1″-terphenyl]-4-carbonitrile] was tested, and the GI50 [1] was 30 to 300 nM and the IC50 [2] was 1 to 10 nM.
`CN1CCN(c2ccc(-c3cc(OC(F)(F)F)cc(-c4ccnc(N5CCNCC5)c4)c3O)cc2Cl)C1=O` [Example 309, l-(3-chloro-2′-hydroxy-3′-(2-(piperazin-l-yl)pyridin-4-yl)-5′-(trifluoromethoxy)-[1,1′-biphenyl]-4-yl)-3-methylimidazolidin-2-one] was tested, and the GI50 [1] was at least 3000 nM and the IC50 [2] was 10 to 100 nM.
`CN1CCN(c2ccc(-c3cc(C(C)(C)C)cc(-c4ccnc(N5CCNCC5)c4)c3O)cc2Cl)C1=O` [Example 310, 1-(5′-(tert-butyl)-3-chloro-2′-hydroxy-3′-(2-(piperazin-1-yl)pyridin-4-yl)-[1,1′-biphenyl]-4-yl)-3-methylimidazolidin-2-one] showed a GI50 [1] of 300 to 3000 nM and an IC50 [2] of over 100 nM.
In the case of `CCc1cc(-c2ccnc(N3CCNCC3)c2)c(O)c(-c2ccc(N3CCN(C)C3=O)c(Cl)c2)c1` [Example 311, l-(3-chloro-5′-ethyl-2′-hydroxy-3′-(2-(piperazin-1-yl)pyridin-4-yl)-[1,1′-biphenyl]-4-yl)-3-methylimidazolidin-2-one], the GI50 [1] is reported as 300 to 3000 nM and the IC50 [2] is reported as 1 to 10 nM.
`COc1cc(-c2ccnc(N3CCNCC3)c2)c(O)c(-c2ccc(N3CCN(C)C3=O)c(Cl)c2)c1` [Example 312, l-(3-chloro-2′-hydroxy-5′-methoxy-3′-(2-(piperazin-1-yl)pyridin-4-yl)-[1,1′-biphenyl]-4-yl)-3-methylimidazolidin-2-one] was tested, and the GI50 [1] was 30 to 300 nM and the IC50 [2] was 1 to 10 nM.
For `CC(=O)Nc1ccc(-c2cccc(-c3cc(C#N)nc(N4CCNCC4)c3)c2O)cc1F` [Example 313, N-(3′-(2-cyano-6-(piperazin-1-yl)pyridin-4-yl)-3-fluoro-2′-hydroxy-[1,1′-biphenyl]-4-yl)acetamide], the GI50 [1] was at least 3000 nM and the IC50 [2] was over 100 nM.
Compound `CN1CCN(c2ccc(-c3cc(C#N)cc(-c4ccnc(N5CCNCC5)c4)c3O)cc2Cl)C1=O` [Example 314, 3′-chloro-6-hydroxy-4′-(3-methyl-2-oxoimidazolidin-1-yl)-5-(2-(piperazin-1-yl)pyridin-4-yl)-[1,1′-biphenyl]-3-carbonitrile] has a GI50 [1] of at least 3000 nM and an IC50 [2] of over 100 nM.
Compound `CC(C)c1cc(-c2ccnc(N3CCNCC3)c2)c(O)c(-c2ccc(N3CCN(C)C3=O)c(Cl)c2)c1` [Example 315, l-(3-chloro-2′-hydroxy-5′-isopropyl-3′-(2-(piperazin-1-yl)pyridin-4-yl)-[1,1-biphenyl]-4-yl)-3-methylimidazolidin-2-one] has a GI50 [1] of 300 to 3000 nM and an IC50 [2] of 10 to 100 nM.
Compound `CN1CCN(c2ccc(-c3cc(C4CC4)cc(-c4ccnc(N5CCNCC5)c4)c3O)cc2Cl)C1=O` [Example 316, 1-(3-chloro-5′-cyclopropyl-2′-hydroxy-3′-(2-(piperazin-1-yl)pyridin-4-yl)-[1,1′-biphenyl]-4-yl)-3-methylimidazolidin-2-one] has a GI50 [1] of 300 to 3000 nM and an IC50 [2] of 1 to 10 nM.
`CN1CCN(c2ccc(-c3cccc(-c4ccc(CO)c(N5CCNCC5)c4)c3O)cc2Cl)C1=O` [Example 317, 1-(3-chloro-2′-hydroxy-4″-(hydroxymethyl)-3″-(piperazin-1-yl)-[1,1′:3′,1″-terphenyl]-4-yl)-3-methylimidazolidin-2-one] showed a GI50 [1] of 30 to 300 nM and an IC50 [2] of 1 to 10 nM.
Work on `CN1CCN(c2ccc(-c3cc(-c4ccccc4)cc(-c4ccnc(N5CCNCC5)c4)c3O)cc2Cl)C1=O` [Example 318, 1-(3-chloro-6′-hydroxy-5′-(2-(piperazin-1-yl)pyridin-4-yl)-[1,1′:3′,1″-terphenyl]-4-yl)-3-methylimidazolidin-2-one] yielded a GI50 [1] of 300 to 3000 nM and an IC50 [2] of over 100 nM.
Compound `CN1CCN(c2ccc(-c3cccc(-c4ccc(CN)c(N5CCNCC5)c4)c3O)cc2Cl)C1=O` [Example 319, 1-(4″-(aminomethyl)-3-chloro-2′-hydroxy-3″-(piperazin-1-yl)-[1,1′:3′,1″-terphenyl]-4-yl)-3-methylimidazolidin-2-one] has a GI50 [1] of 300 to 3000 nM and an IC50 [2] of 1 to 10 nM.
Work on `CC(=O)NCc1ccc(-c2cccc(-c3ccc(N4CCN(C)C4=O)c(Cl)c3)c2O)cc1N1CCNCC1` [Example 320, N-((3″-chloro-2′-hydroxy-4″-(3-methyl-2-oxoimidazolidin-1-yl)-3-(piperazin-1-yl)-[1,1′:3′,1″-terphenyl]-4-yl)methyl)acetamide] yielded a GI50 [1] of 30 to 300 nM and an IC50 [2] of 1 to 10 nM.
Work on `CC(=O)Nc1ccc(-c2cc(F)cc(-c3ccnc(N4CC5(CNC5)C4)c3)c2O)cc1F` [Example 321, N-(3′-(2-(2,6-diazaspiro[3.3]heptan-2-yl)pyridin-4-yl)-3,5′-difluoro-2′-hydroxy-[1,1′-biphenyl]-4-yl)acetamide] yielded a GI50 [1] of 30 to 300 nM and an IC50 [2] of 10 to 100 nM.
With `CN1CCN(c2ccc(-c3cccc(-c4ccnc(N5CC6(CNC6)C5)c4)c3O)cc2F)C1=O` [Example 322, 1-(3′-(2-(2,6-diazaspiro[3.3]heptan-2-yl)pyridin-4-yl)-3-fluoro-2′-hydroxy-[1,1′-biphenyl]-4-yl)-3-methylimidazolidin-2-one] the GI50 [1] was 30 to 300 nM and the IC50 [2] was 10 to 100 nM.
Compound `CN1CCN(c2ccc(-c3cccc(-c4ccnc(N5CC6(CNC6)C5)c4)c3O)cc2Cl)C1=O` [Example 323, 1-(3′-(2-(2,6-diazaspiro[3.3]heptan-2-yl)pyridin-4-yl)-3-chloro-2′-hydroxy-[1,1′-biphenyl]-4-yl)-3-methylimidazolidin-2-one] has a GI50 [1] of 30 to 300 nM and an IC50 [2] of 1 to 10 nM.
`O=C1CCCN1c1ccc(-c2cc(F)cc(-c3ccnc(N4CC5(CNC5)C4)c3)c2O)cc1Cl` [Example 324, 1-(3′-(2-(2,6-diazaspiro[3.3]heptan-2-yl)pyridin-4-yl)-3-chloro-5′-fluoro-2′-hydroxy-[1,1′-biphenyl]-4-yl)pyrrolidin-2-one] gave a GI50 [1] of 300 to 3000 nM and an IC50 [2] of 10 to 100 nM.
Compound `CN1CCN(c2ccc(-c3cccc(-c4cncc(N5CCCC(N)C5)c4)c3O)cc2Cl)C1=O` (centres unmarked) [Example 325, 1-(3′-(5-(3-aminopiperidin-1-yl)pyridin-3-yl)-3-chloro-2′-hydroxy-[1,1′-biphenyl]-4-yl)-3-methylimidazolidin-2-one] has a GI50 [1] of 30 to 300 nM and an IC50 [2] of 1 to 10 nM.
Work on `CN1CCN(c2ccc(-c3cccc(-c4cc(CN)cc(N5CCNCC5)c4)c3O)cc2Cl)C1=O` [Example 326, 1-(3″-(aminomethyl)-3-chloro-2′-hydroxy-5″-(piperazin-1-yl)-[1,1′:3′,1″-terphenyl]-4-yl)-3-methylimidazolidin-2-one] yielded a GI50 [1] of 300 to 3000 nM and an IC50 [2] of 10 to 100 nM.
In the case of `CC(=O)NCc1cc(-c2cccc(-c3ccc(N4CCN(C)C4=O)c(Cl)c3)c2O)cc(N2CCNCC2)c1` [Example 327, N-((3″-chloro-2′-hydroxy-4″-(3-methyl-2-oxoimidazolidin-1-yl)-5-(piperazin-1-yl)-[1,1′:3′,1″-terphenyl]-3-yl)methyl)acetamide], the GI50 [1] is reported as 30 to 300 nM and the IC50 [2] is reported as 1 to 10 nM.
Work on `CC1CCN(c2ccc(-c3cccc(-c4ccnc(N5CCNCC5)c4)c3O)cc2Cl)C1=O` (centres unmarked) [Example 328, 1-(3-chloro-2′-hydroxy-3′-(2-(piperazin-1-yl)pyridin-4-yl)-[1,1′-biphenyl]-4-yl)-3-methylpyrrolidin-2-one] yielded a GI50 [1] of 300 to 3000 nM and an IC50 [2] of 1 to 10 nM.
`CC1(C)CCN(c2ccc(-c3cccc(-c4ccnc(N5CCNCC5)c4)c3O)cc2Cl)C1=O` [Example 329, 1-(3-chloro-2′-hydroxy-3′-(2-(piperazin-1-yl)pyridin-4-yl)-[1,1′-biphenyl]-4-yl)-3,3-dimethylpyrrolidin-2-one] showed a GI50 [1] of 300 to 3000 nM and an IC50 [2] of over 100 nM.
`CC(=O)Nc1ccc(-c2cccc(-c3ccc(N4CCN(C)C4=O)c(Cl)c3)c2O)cc1N1CCNCC1` [Example 330, N-(3″-chloro-2′-hydroxy-4″-(3-methyl-2-oxoimidazolidin-1-yl)-3-(piperazin-1-yl)-[1,1′:3′,1″-terphenyl]-4-yl)acetamide] was tested, and the GI50 [1] was 30 to 300 nM and the IC50 [2] was 1 to 10 nM.
`CN1CCN(c2ccc(-c3cccc(-c4cc(C#N)cc(N5CCNCC5)c4)c3O)cc2Cl)C1=O` [Example 331, 3″-chloro-2′-hydroxy-4″-(3-methyl-2-oxoimidazolidin-1-yl)-5-(piperazin-1-yl)-[1,1′:3′,1″-terphenyl]-3-carbonitrile] gave a GI50 [1] of 30 to 300 nM and an IC50 [2] of 1 to 10 nM.
With `CN1CCN(c2ccc(-c3cc(C(F)(F)F)cc(-c4ccnc(N5CCNCC5)c4)c3O)cc2Cl)C1=O` [Example 332, 1-(3-chloro-2′-hydroxy-3′-(2-(piperazin-1-yl)pyridin-4-yl)-5′-(trifluoromethyl)-[1,1′-biphenyl]-4-yl)-3-methylimidazolidin-2-one] the GI50 [1] was at least 3000 nM and the IC50 [2] was 10 to 100 nM.
`CC(=O)Nc1ccc(-c2cccc(-c3cc(NCCO)nc(N4CCNCC4)c3)c2O)cc1F` [Example 333, N-(3-fluoro-2′-hydroxy-3′-(2-((2-hydroxyethyl)amino)-6-(piperazin-1-yl)pyridin-4-yl)-[1,1′-biphenyl]-4-yl)acetamide] gave a GI50 [1] of 30 to 300 nM and an IC50 [2] of 1 to 10 nM.
Work on `CN1CCN(c2ccc(-c3cccc(-c4cncc(N5CC6(CNC6)C5)c4)c3O)cc2F)C1=O` [Example 334, 1-(3′-(5-(2,6-diazaspiro[3.3]heptan-2-yl)pyridin-3-yl)-3-fluoro-2′-hydroxy-[1,1′-biphenyl]-4-yl)-3-methylimidazolidin-2-one] yielded a GI50 [1] of 300 to 3000 nM and an IC50 [2] of 10 to 100 nM.
